Results: patent US12060588B2, “Methods of editing DNA methylation” (Whitehead Institute for Biomedical Research, priority 2016, dated 2024)

System: MyoD distal enhancer (DMR-5)
Assay: Bisulfite sequencing of the MyoD DMR-5 region in C3H10T1/2 cells
Format: cell-based, mouse
Conditions: with target gRNAs, sorted infection-positive cells
Source text: FIGS. 4A-4H depict targeted demethylation of the MyoD distal enhancer by dCas9-Tet1 to facilitate conversion of fibroblasts to myoblasts. FIG. 4A provides a schematic representation of targeting the MyoD distal enhancer (DE) region in DMR-5 by dCas9-Tet1 (dC-T) with specific gRNAs. […] Cherry positive cells were FACS sorted for RT-qPCR analysis. Bars represent mean±SD of three experimental replicates. FIG. 4C bisulfite sequencing of cells in FIG. 4B. […] Shown is the mean percentage±SD of two biological replicates. […] FIG. 4F provides quantification of MyoD positive cell ratio 14-day post infection with lentiviruses expressing dC-T alone, dC-T with gRNAs targeting DMR-5, and dC-dT with the target gRNAs. […] FIG. 4H provides quantification of myotube density in MHC positive clusters with more than 2 or 5 nuclei at 14-days after infection. […] Data are quantified from 3-5 representative images for F-H. Bars represent mean±SD.
Six muscle-specific DMRs have been described within the 50 kb upstream region of MyoD gene (Schultz et al., 2015), and DMR-5 overlaps with a known distal enhancer of MyoD (Brunk et al., 1996) as shown in FIG. 4A. […] The cells were cultured for 14 days and analyzed for MyoD and MHC (Myosin Heavy chain, a myotube specific marker) expression. […]

In the case of “dCas9-Tet1: catalytically inactive Cas9 (dCas9) fused through NLS to the Tet1 catalytic domain, SEQ ID NO: 159; lentivirally expressed with gRNAs”, the “methylation in the DMR-5 region” value is reported as “substantial reduction of methylation”.
